Data: publication PMC4646072 (Chemistry (Weinheim an der Bergstrasse, Germany), 2015)

Molecular target: AgtA (His6AgtA) (Dictyostelium discoideum, UniProt Q54RP0)
Assay: radiometric galactosyl transfer from UDP-[3H]Gal
Assay type: biochemical
Settings: 10 µM UDP-[3H]Gal, 60 min; acceptor substrate

AgtA (His6AgtA), sequence (Q54RP0 whole entry): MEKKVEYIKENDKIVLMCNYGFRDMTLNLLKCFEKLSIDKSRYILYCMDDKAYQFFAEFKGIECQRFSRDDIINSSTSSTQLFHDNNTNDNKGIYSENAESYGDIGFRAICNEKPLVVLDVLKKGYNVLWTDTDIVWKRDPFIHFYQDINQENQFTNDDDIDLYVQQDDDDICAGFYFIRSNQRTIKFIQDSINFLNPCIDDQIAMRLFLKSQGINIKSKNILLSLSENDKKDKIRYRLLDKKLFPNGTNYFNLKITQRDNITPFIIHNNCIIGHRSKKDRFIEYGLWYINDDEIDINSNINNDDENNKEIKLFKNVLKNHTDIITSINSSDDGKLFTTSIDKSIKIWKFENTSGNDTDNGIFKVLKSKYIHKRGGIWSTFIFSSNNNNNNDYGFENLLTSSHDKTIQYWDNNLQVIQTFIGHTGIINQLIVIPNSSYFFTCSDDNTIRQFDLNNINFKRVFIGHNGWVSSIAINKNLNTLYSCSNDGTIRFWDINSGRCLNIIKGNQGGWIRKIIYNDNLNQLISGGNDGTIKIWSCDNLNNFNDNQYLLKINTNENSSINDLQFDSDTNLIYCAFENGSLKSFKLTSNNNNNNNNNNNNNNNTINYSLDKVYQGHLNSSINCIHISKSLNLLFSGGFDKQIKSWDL

C[C@@H]1O[C@@H](Oc2ccc([N+](=O)[O-])cc2)[C@@H](O)[C@H](O)[C@@H]1O [F-pNP]
radiometric galactosyl transfer from UDP-[3H]Gal: Comparison of AgtA activity towards F-pNP and FGGn-pNP
